Experimental findings from ChEMBL document CHEMBL5385844, “Discovery of novel imidazole chemotypes as isoform-selective JNK3 inhibitors for the treatment of Alzheimer's disease” (Eur J Med Chem, 2023) are described below.

The structures appear in SMILES notation.

For data set [1], the target named is T1, Mitogen-activated protein kinase 8 (Homo sapiens, UniProt P45983). Put plainly: Inhibition of JNK1 (unknown origin) assessed as incorporation of 33P-ATP.
For data set [2], the target named is Mitogen-activated protein kinase 10 (Homo sapiens, UniProt P53779). Put plainly: Inhibition of human JNK3 incubated for 40 mins in presence of ATP and [gamma33P-ATP] by scintillation counting method. To be noted: read-out: IC50.
The target of data set [3] is T2, Mitogen-activated protein kinase 9 (Homo sapiens, UniProt P45984). The data set can be described thus: Inhibition of JNK2 (unknown origin) assessed as incorporation of 33P-ATP.
For data set [4], the target named is T2, Mitogen-activated protein kinase 9. Put plainly: Inhibition of JNK2 (unknown origin) by ATP-competitive assay.
For data set [5], the target named is T1, Mitogen-activated protein kinase 8. The data set can be described thus: Inhibition of JNK1 (unknown origin) by ATP-competitive assay.
Data set [6] in a line: Cmax in Sprague-Dawley rat at 15 mg/kg, po measured upto 24 hrs by UPLC analysis. It is filed as ADME, organism-based. Further details: dose 15 mg/kg, time < 24 hrs, route po. The note with it: in vivo.
A short description of data set [7]: AUC in Sprague-Dawley rat at 1 mg/kg, iv measured upto 24 hrs by UPLC analysis. It is filed as ADME, organism-based. More on the design: dose 1 mg/kg, time < 24 hrs, route iv. The note with it: in vivo.
The target in data set [8] is T2, Mitogen-activated protein kinase 9. Put plainly: Inhibition of human JNK2 incubated for 40 mins in presence of ATP and [gamma33P-ATP] by scintillation counting method.
Data set [9] can be described thus: Oral bioavailability in Sprague-Dawley rat at 15 mg/kg measured upto 24 hrs by UPLC analysis. It is filed as ADME, organism-based. To be noted: in vivo.
Data set [10] has as its system Cortical neurone. Put plainly: Neuroprotective activity against Amyloid beta (1 to 42)-induced toxicity in rat cortical neuron assessed as cell viability at 20 uM measured after 48 hrs by MTT assay. To be noted: read-out: Activity. It is filed as functional.
A short description of data set [11]: Tmax in Sprague-Dawley rat at 15 mg/kg, po measured upto 24 hrs by UPLC analysis. It is filed as ADME, organism-based. To be noted: in vivo.
The nature of data set [12]: AUC in Sprague-Dawley rat at 15 mg/kg, po measured upto 24 hrs by UPLC analysis. More on the design: dose 15 mg/kg, time < 24 hrs, route po. To be noted: in vivo. It is filed as ADME, organism-based.
Data set [13] is described as follows: Half life in Sprague-Dawley rat at 1 mg/kg, iv measured upto 24 hrs by UPLC analysis. It is filed as ADME, organism-based. To be noted: in vivo.
In data set [14] the test system is Cortical neurone. The data set can be described thus: Neuroprotective activity against Amyloid beta (1 to 42)-induced toxicity in rat cortical neuron assessed as cell viability at 20 uM measured after 24 hrs by MTT assay. It is filed as functional. To be noted: read-out: Activity.
Data set [15] has as its target T1, Mitogen-activated protein kinase 8. Put plainly: Inhibition of human JNK1 incubated for 40 mins in presence of ATP and [gamma33P-ATP] by scintillation counting method.
A short description of data set [16]: Half life in Sprague-Dawley rat at 15 mg/kg, po measured upto 24 hrs by UPLC analysis. It is filed as ADME, organism-based. The note with it: in vivo.

T2 sequence (P45984 whole entry): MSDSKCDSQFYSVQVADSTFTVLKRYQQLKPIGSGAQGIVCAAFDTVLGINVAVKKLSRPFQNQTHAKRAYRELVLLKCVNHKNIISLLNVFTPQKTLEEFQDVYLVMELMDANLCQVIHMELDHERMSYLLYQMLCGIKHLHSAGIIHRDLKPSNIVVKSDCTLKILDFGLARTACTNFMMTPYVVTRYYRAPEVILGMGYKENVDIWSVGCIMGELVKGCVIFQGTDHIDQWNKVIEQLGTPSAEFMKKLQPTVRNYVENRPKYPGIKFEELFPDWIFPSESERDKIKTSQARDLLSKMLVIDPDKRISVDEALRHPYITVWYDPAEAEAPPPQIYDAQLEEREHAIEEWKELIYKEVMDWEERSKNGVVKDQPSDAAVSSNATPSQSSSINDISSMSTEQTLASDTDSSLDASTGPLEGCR
T1 sequence (P45983 whole entry): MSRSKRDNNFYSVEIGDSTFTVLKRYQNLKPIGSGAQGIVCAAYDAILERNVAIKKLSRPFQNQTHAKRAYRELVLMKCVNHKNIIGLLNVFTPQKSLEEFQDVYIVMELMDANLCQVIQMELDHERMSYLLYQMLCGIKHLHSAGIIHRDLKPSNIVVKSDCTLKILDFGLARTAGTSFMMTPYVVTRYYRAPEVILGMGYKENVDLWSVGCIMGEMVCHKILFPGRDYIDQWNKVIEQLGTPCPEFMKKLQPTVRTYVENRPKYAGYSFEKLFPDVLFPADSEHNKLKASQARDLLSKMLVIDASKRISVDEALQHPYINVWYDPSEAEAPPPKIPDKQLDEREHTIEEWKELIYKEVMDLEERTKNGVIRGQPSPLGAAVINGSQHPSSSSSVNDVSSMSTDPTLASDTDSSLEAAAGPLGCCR
Mitogen-activated protein kinase 10, sequence (P53779 whole entry): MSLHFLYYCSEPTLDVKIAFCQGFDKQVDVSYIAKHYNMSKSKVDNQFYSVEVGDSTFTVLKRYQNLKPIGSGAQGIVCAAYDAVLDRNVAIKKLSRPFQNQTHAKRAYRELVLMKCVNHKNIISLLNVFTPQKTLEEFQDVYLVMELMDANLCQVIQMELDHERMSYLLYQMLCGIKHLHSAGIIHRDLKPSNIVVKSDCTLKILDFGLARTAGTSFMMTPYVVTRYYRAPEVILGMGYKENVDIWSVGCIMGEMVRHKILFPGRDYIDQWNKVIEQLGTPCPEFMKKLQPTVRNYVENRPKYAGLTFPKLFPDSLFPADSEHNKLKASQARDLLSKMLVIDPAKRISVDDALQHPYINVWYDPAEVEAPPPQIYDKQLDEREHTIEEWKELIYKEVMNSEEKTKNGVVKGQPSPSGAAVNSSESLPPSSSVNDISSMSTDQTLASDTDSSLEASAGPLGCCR

Take `O=C(C1CC1)N1CCC[C@H](Nc2nccc(-n3c(-c4ccc5c(c4)OCCO5)nc4cc(O)c(O)cc43)n2)C1`: the IC50 in data set [1] was over 10000 nM; in data set [2], 10 nM; in data set [3] it was about 1000 nM.

For `O=C1c2ccccc2C2=NNC3=CC=CC1C32` (configuration not stated), the IC50 in data set [4] and in data set [5] was 40 nM in each case.

In the case of `N#CCc1cnc(-c2ccc(Cl)c(Cl)c2)n1-c1ccnc(N[C@H]2CCCN(C(=O)C3CC3)C2)n1`, in data set [6], the Cmax worked out at 406 ng/mL. Also, the exposure (AUC) at 24 h in data set [7] is 902 ng·h/mL; in data set [12] it was 839 ng·h/mL. Also, the IC50 in [8] worked out at 44.2 nM; in data set [2], 2 nM; in data set [15], 312 nM. In data set [9], this compound returned a bioavailability of 6.2%. In addition, the viability at 20 µM stood at 47% in the data set on Cortical neurone [10] and 72.4% with Cortical neurone [14]. Further, the Tmax in data set [11] is 40.2 min. Further, the results for the half-life in [13] and in data set [16] were 12.6 min and 105 min, respectively.
